Assay results from ChEMBL document CHEMBL1152263, “Perylene-conjugated pyrrole polyamide as a sequence-specific fluorescent probe” (Bioorg Med Chem, 2008).
Active and inactive are the calls of the source. The calls are words filed in the database; no cut-off is given here.

How the values were obtained:
[1] = Binding affinity to AT-rich sequence of double strand DNA by fluorescence spectra
[2] = Binding affinity to ODN1/2 double strand DNA by fluorescence spectra

Activity [1]: Active
Activity [2]: Active
Compound: CC(=O)Nc1cc(C(=O)Nc2cc(C(=O)NCCC(=O)Nc3cc(C(=O)Nc4cc(C(=O)NCCC(=O)NCCCN(C)C)n(C)c4)n(C)c3)n(CC#Cc3ccc4c5cccc6cccc(c7cccc3c74)c65)c2)n(C)c1
